# According to ChEMBL document CHEMBL6078703, “Discovery of Novel Thiophene-Based Baloxavir Derivatives as Potent Cap-Dependent Endonuclease Inhibitors for Influenza Treatment” (J Med Chem, 2024):
# Calls of active or inactive are those of the source. The rule behind the calls is not given here.
# Assays:
# [1] = Metabolic stability in mouse liver microsomes assessed as intrinsic clearance measured up to 60 mins by LC-MS/MS analysis; assay type: ADME, Microsome; conditions: read-out: CLH
# [2] = Selectivity index, ratio of CC50 for dog MDCK cells to EC50 for antiviral activity against influenza strain A/WSN/1933 (H1N1) infected in MDCK cells; assay type: toxicity, cell-based; conditions: read-out: Selectivity Index
# [3] = Selectivity index, ratio of CC50 for dog MDCK cells to EC50 for antiviral activity against influenza strain A/Aichi/ 2/1968 (H3N2) infected in MDCK cells; assay type: toxicity, cell-based; conditions: read-out: Selectivity Index
# [4] = system: Mus musculus; assay: In vivo inhibition of […] (PA) protein expression in H1N1 influenza virus infected in BALB/c mouse at 20 to 40 mg/kg single oral dose by Western blot analysis; assay type: functional, organism-based; conditions: dose 20-40 mg/kg
# [5] = Cmax in CD-1 mouse at 1 mg/kg, iv measured up to 24 hrs by LC-MS/MS analysis; assay type: ADME, organism-based; conditions: in vivo
# [6] = Cmax in CD-1 mouse at 15 mg/kg, po measured up to 24 hrs by LC-MS/MS analysis; assay type: ADME, organism-based; conditions: in vivo
# [7] = system: HEK293T; assay: Inhibition of H1N1 influenza virus RdRp extracted for human 293T cells assessed as luminescence signal after 24 hrs incubation by Firefly/Renilla luciferase assay; assay type: cell-based; conditions: Influenza A virus, dose 0.625-12.5 nM
# [8] = system: Mus musculus; assay: In vivo inhibition of […] (PA) mRNA expression in H1N1 influenza virus infected in BALB/c mouse at 20 to 40 mg/kg single oral dose by qRT-PCR analysis; assay type: functional, organism-based; conditions: dose 20-40 mg/kg
# [9] = Half life in CD-1 mouse at 15 mg/kg, po measured up to 24 hrs by LC-MS/MS analysis; assay type: ADME, organism-based; conditions: in vivo
# [10] = system: Mus musculus; assay: In vivo inhibition of polymerase acid protein (PA) mRNA expression in H1N1 influenza virus infected in BALB/c mouse at 20 to 40 mg/kg single oral dose by qRT-PCR analysis; assay type: functional, organism-based; conditions: dose 20-40 mg/kg
# [11] = MRT (0 to infinity) in CD-1 mouse at 1 mg/kg, iv measured up to 24 hrs by LC-MS/MS analysis; assay type: ADME, organism-based; conditions: in vivo
# [12] = Tmax in CD-1 mouse at 15 mg/kg, po measured up to 24 hrs by LC-MS/MS analysis; assay type: ADME, organism-based; conditions: in vivo
# [13] = Cytotoxicity against human Huh-7 cells assessed as cell viability measured after 48 hrs by CCK-8 assay; assay type: toxicity, cell-based
# [14] = Metabolic stability in human liver microsomes assessed as half life measured up to 60 mins by LC-MS/MS analysis; assay type: ADME, Microsome
# [15] = system: Influenza A virus; assay: Antiviral activity against influenza strain A/Aichi/ 2/1968 (H3N2) infected in MDCK cells assessed as reduction of virus-induced cytopathic effect measured after 2 days incubation; assay type: functional, organism-based; conditions: 48 h
# [16] = Oral bioavailability in CD-1 mouse at 15 mg/kg measured up to 24 hrs by LC-MS/MS analysis; assay type: ADME, organism-based; conditions: CD-1, mouse, in vivo
# [17] = system: Influenza A virus; assay: Antiviral activity against influenza virus clinical strain H3N2 (A/Guangdong/2/2023) infected in MDCK cells assessed as reduction of virus-induced cytopathic effect measured after 2 days incubation; assay type: functional, organism-based; conditions: 48 h
# [18] = AUC (0 to infinity) in CD-1 mouse at 15 mg/kg, po measured up to 24 hrs by LC-MS/MS analysis; assay type: ADME, organism-based; conditions: CD-1, mouse, in vivo
# [19] = Cytotoxicity against human HepG2 cells assessed as cell viability measured after 48 hrs by CCK-8 assay; assay type: toxicity, cell-based
# [20] = system: Influenza A virus; assay: Antiviral activity against influenza strain A/WSN/1933 (H1N1) infected in MDCK cells assessed as reduction of virus-induced cytopathic effect measured after 2 days incubation; assay type: functional, organism-based; conditions: 48 h
# [21] = Cytotoxicity against dog MDCK cells assessed as cell viability measured after 48 hrs by CCK-8 assay; assay type: toxicity, cell-based, Canis lupus familiaris
# [22] = Metabolic stability in mouse liver microsomes assessed as half life measured up to 60 mins by LC-MS/MS analysis; assay type: ADME, Microsome
# [23] = Tmax in CD-1 mouse at 1 mg/kg, iv measured up to 24 hrs by LC-MS/MS analysis; assay type: ADME, organism-based; conditions: in vivo
# [24] = Cytotoxicity against human Hep3B cells assessed as cell viability measured after 48 hrs by CCK-8 assay; assay type: toxicity, cell-based, Hep 3B2
# [25] = AUC (0 to infinity) in CD-1 mouse at 1 mg/kg, iv measured up to 24 hrs by LC-MS/MS analysis; assay type: ADME, organism-based; conditions: CD-1, mouse, in vivo
# [26] = Cytotoxicity against human 786O cells assessed as cell viability measured after 48 hrs by CCK-8 assay; assay type: toxicity, cell-based, 786-0
# [27] = system: Mus musculus; assay: In vivo inhibition of polymerase acid protein (PA) protein expression in H1N1 influenza virus infected in BALB/c mouse at 20 to 40 mg/kg single oral dose by Western blot analysis; assay type: functional, organism-based; conditions: dose 20-40 mg/kg
# [28] = Half life in CD-1 mouse at 1 mg/kg, iv measured up to 24 hrs by LC-MS/MS analysis; assay type: ADME, organism-based; conditions: in vivo
# [29] = MRT (0 to infinity) in CD-1 mouse at 15 mg/kg, po measured up to 24 hrs by LC-MS/MS analysis; assay type: ADME, organism-based; conditions: in vivo
# [30] = Metabolic stability in human liver microsomes assessed as intrinsic clearance measured up to 60 mins by LC-MS/MS analysis; assay type: ADME, Microsome; conditions: read-out: CLH
# [31] = Acute toxicity in CD-1 mouse assessed as abnormal lesions in kidney at 2000 mg/kg, po single dose measured for 2 weeks by macroscopic examination; assay type: organism-based; conditions: in vivo, 336 h
# [32] = system: Influenza A virus; assay: In vivo antiviral activity against influenza strain A/WSN/1933 (H1N1) infected in BALB/c mouse assessed as improvement in septal thickening in lungs at 10 to 20 mg/kg, IG treated 12 hrs after infection measured on 9 dpi by histopathological analysis; assay type: functional, organism-based; conditions: dose 10-20 mg/kg, time 9.0 day
# [33] = Acute toxicity in CD-1 mouse assessed as abnormal lesions in lungs at 2000 mg/kg, po single dose measured for 2 weeks by macroscopic examination; assay type: organism-based; conditions: in vivo, 336 h
# [34] = Acute toxicity in CD-1 mouse assessed as mouse survival at 2000 mg/kg, po single dose measured for 2 weeks; assay type: organism-based; conditions: in vivo, 336 h
# [35] = system: Influenza A virus; assay: In vivo antiviral activity against influenza strain A/WSN/1933 (H1N1) infected in BALB/c mouse assessed as increase in mouse survival at 10 to 40 mg/kg, IG treated 12 hrs after infection measured on 9 dpi; assay type: functional, organism-based; conditions: dose 10-40 mg/kg, time 9.0 day
# [36] = system: Influenza A virus; assay: In vivo antiviral activity against influenza strain A/WSN/1933 (H1N1) infected in BALB/c mouse assessed as inhibition of virus-induced inflammatory cytokine IL-1beta level at 10 to 40 mg/kg, IG treated 12 hrs after infection measured on 9 dpi; assay type: functional, organism-based; conditions: dose 10-40 mg/kg, time 9.0 day
# [37] = system: Influenza A virus; assay: In vivo antiviral activity against influenza strain A/WSN/1933 (H1N1) infected in BALB/c mouse assessed as inhibition of virus-induced inflammatory cytokine IL-6 level at 10 to 40 mg/kg, IG treated 12 hrs after infection measured on 9 dpi; assay type: functional, organism-based; conditions: dose 10-40 mg/kg, time 9.0 day
# [38] = system: Influenza A virus; assay: In vivo antiviral activity against influenza strain A/WSN/1933 (H1N1) infected in BALB/c mouse assessed as inhibition of virus-induced inflammatory cytokine IFNgamma level at 10 to 40 mg/kg, IG treated 12 hrs after infection measured on 9 dpi; assay type: functional, organism-based; conditions: dose 10-40 mg/kg, time 9.0 day
# [39] = Acute toxicity in CD-1 mouse assessed as clinical signs of toxicity at 2000 mg/kg, po single dose measured for 2 weeks; assay type: organism-based; conditions: in vivo, 336 h
# [40] = system: Influenza A virus; assay: In vivo antiviral activity against influenza strain A/WSN/1933 (H1N1) infected in BALB/c mouse assessed as improvement in septal thickening in lungs at 20 to 40 mg/kg, IG treated 12 hrs after infection measured on 9 dpi by histopathological analysis; assay type: functional, organism-based; conditions: dose 20-40 mg/kg, time 9.0 day
# [41] = system: Influenza A virus; assay: In vivo antiviral activity against influenza strain A/WSN/1933 (H1N1) infected in BALB/c mouse assessed as inhibition of virus-induced inflammatory cytokine TNF-alpha level at 10 to 40 mg/kg, IG treated 12 hrs after infection measured on 9 dpi; assay type: functional, organism-based; conditions: dose 10-40 mg/kg, time 9.0 day
# [42] = Acute toxicity in CD-1 mouse assessed as abnormal lesions in intestine at 2000 mg/kg, po single dose measured for 2 weeks by macroscopic examination; assay type: organism-based; conditions: in vivo, 336 h
# [43] = system: Influenza A virus; assay: In vivo antiviral activity against influenza strain A/WSN/1933 (H1N1) infected in BALB/c mouse assessed as improvement in alveolar collapse in lungs at 10 to 20 mg/kg, IG treated 12 hrs after infection measured on 9 dpi by histopathological analysis; assay type: functional, organism-based; conditions: dose 10-20 mg/kg, time 9.0 day
# [44] = system: Influenza A virus; assay: In vivo antiviral activity against influenza strain A/WSN/1933 (H1N1) infected in BALB/c mouse assessed as weight regaining at 10 to 40 mg/kg, IG treated 12 hrs after infection measured on 9 dpi; assay type: functional, organism-based; conditions: dose 10-40 mg/kg, time 9.0 day
# [45] = Acute toxicity in CD-1 mouse assessed as abnormal lesions in spleen at 2000 mg/kg, po single dose measured for 2 weeks by macroscopic examination; assay type: organism-based; conditions: in vivo, 336 h
# [46] = system: Influenza A virus; assay: In vivo antiviral activity against influenza strain A/WSN/1933 (H1N1) infected in BALB/c mouse assessed as reduction in overall inflammation in lungs at 10 to 20 mg/kg, IG treated 12 hrs after infection measured on 9 dpi by histopathological analysis; assay type: functional, organism-based; conditions: dose 10-20 mg/kg, time 9.0 day
# [47] = system: Influenza A virus; assay: In vivo antiviral activity against influenza strain A/WSN/1933 (H1N1) infected in BALB/c mouse assessed as improvement in alveolar collapse in lungs at 20 to 40 mg/kg, IG treated 12 hrs after infection measured on 9 dpi by histopathological analysis; assay type: functional, organism-based; conditions: dose 20-40 mg/kg, time 9.0 day
smiles,measurement,setting,value
O=C1c2c(O)c(=O)ccn2N([C@@H](c2ccc(F)c(F)c2)c2cccs2)[C@@H]2COCCN12,CLint scaled,[1],2.38 mL/min/kg
same,selectivity ratio,[2],18200
same,selectivity ratio,[3],7180
same,inhibition,[4],Active
same,Cmax,[5],940 ng/mL
same,Cmax,[6],4070 ng/mL
same,Activity,[7],Dose-dependent-effect
same,inhibition,[8],Active
same,half-life,[9],4.3 h
same,inhibition,[10],Active
same,MRT inf,[11],2.98 h
same,Tmax,[12],0.42 h
same,CC50 at 48 h,[13],41.6 µM
same,half-life,[14],12.8 h
same,EC50,[15],0.00477 µM
same,bioavailability,[16],71.6%
same,EC50,[17],0.00249 µM
same,AUC(0-inf),[18],11100 ng·h/mL
same,CC50 at 48 h,[19],> 50 µM
same,EC50,[20],0.00188 µM
same,CC50 at 48 h,[21],34.2 µM
same,half-life,[22],38.5 h
same,Tmax,[23],4.8 min
same,CC50 at 48 h,[24],46.3 µM
same,AUC(0-inf),[25],1230 ng·h/mL
same,CC50 at 48 h,[26],13.8 µM
same,inhibition,[27],Active
same,half-life,[28],3.43 h
same,MRT inf,[29],2.77 h
same,CLint scaled,[30],1.62 mL/min/kg
COC(=O)OCOc1c2n(ccc1=O)N([C@@H](c1ccc(F)c(F)c1)c1cccs1)[C@@H]1COCCN1C2=O,Activity,[31],Non-toxic
same,Activity,[32],inactive
same,Activity,[33],Non-toxic
same,Activity,[34],Non-toxic
same,Activity,[35],Active
same,Activity,[36],Active
same,Activity,[37],Active
same,CC50 at 48 h,[13],60.1 µM
same,Activity,[38],Active
same,Activity,[39],Non-toxic
same,Activity,[40],Active
same,CC50 at 48 h,[19],> 50 µM
same,Activity,[41],Active
same,Activity,[42],Non-toxic
same,CC50 at 48 h,[24],> 50 µM
same,Activity,[43],inactive
same,Activity,[44],Active; Surviving Animals Gradually Starting Weight Weight Beginning 9 Dpi
same,Activity,[45],Non-toxic
same,CC50 at 48 h,[26],29.9 µM
same,Activity,[46],Active
same,Activity,[47],Active
